Assay results: patent publication US20260209220A1, “SUBSTITUTED TETRAHYDROPYRROLO-PYRIDINONE COMPOUNDS AND THEIR USE IN TREATING MEDICAL CONDITIONS” (Karuna Therapeutics, Inc., priority 2022, published 2026)

Tests used:
hM4 receptors = target: T1, hM4 receptors (Homo sapiens, UniProt P08173); experiment: Human M4 PAM PERK assay (CHO cells, TR-FRET, with EC20 acetylcholine); assay type: cell-based
T1 construct: expressed in transfected cells; host or cells: CHO cells
T1 sequence (P08173 1-479): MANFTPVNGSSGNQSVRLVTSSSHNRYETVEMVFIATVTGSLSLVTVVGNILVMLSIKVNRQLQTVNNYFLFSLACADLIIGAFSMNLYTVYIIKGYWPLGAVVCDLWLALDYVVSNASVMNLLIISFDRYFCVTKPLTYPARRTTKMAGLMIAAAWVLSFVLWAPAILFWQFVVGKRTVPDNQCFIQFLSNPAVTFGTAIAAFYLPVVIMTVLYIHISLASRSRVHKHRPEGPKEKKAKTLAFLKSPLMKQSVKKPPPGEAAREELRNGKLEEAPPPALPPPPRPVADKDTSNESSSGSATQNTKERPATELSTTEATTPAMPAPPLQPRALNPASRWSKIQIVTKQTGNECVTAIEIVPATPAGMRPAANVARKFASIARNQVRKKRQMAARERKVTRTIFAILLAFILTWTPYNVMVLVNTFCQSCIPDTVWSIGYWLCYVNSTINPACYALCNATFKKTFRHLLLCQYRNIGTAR
Procedure, shortened: (§1)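 CHO cells expressing human or rat M4, serum-starved 4 h, then given compound (10-point, 10 μM top, ½-log) with EC20 acetylcholine (10 nM final) for 5 min at 37 °C. Lysates assayed for phospho-ERK by TR-FRET after 2 h detection at RT.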

human M4 receptor = target: T2, human M4 receptor (Homo sapiens, UniProt P08173); experiment: M4 GTPγS PAM assay (CHO-K1 membranes, 35S-GTP binding, with EC20 acetylcholine); assay type: biochemical; conditions: with EC20 acetylcholine (40 nM)
T2 construct: expressed in transfected cells; host or cells: CHO-K1 cells (membranes)
T2 sequence (P08173 1-479): T1 sequence (P08173 1-479)
Procedure, shortened: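 Membranes from CHO-K1 cells stably expressing human M4 ([…]) in 20 mM HEPES, 10 mM MgCl2, 100 mM NaCl, with 0.1 μM GDP final, were preincubated with compound 10-15 min at RT. Acetylcholine at EC20 (40 nM final) was added for 10-15 min, then 0.4 nM 35S-GTP solution for 1 h at RT. Filter-bound radioactivity was counted.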

rM4 receptors = target: T3, rM4 receptors (Rattus norvegicus, UniProt P08485); experiment: Rat M4 PAM PERK assay (CHO cells, TR-FRET, with EC20 acetylcholine); assay type: cell-based
T3 construct: expressed in transfected cells; host or cells: CHO cells
T3 sequence (P08485 1-478): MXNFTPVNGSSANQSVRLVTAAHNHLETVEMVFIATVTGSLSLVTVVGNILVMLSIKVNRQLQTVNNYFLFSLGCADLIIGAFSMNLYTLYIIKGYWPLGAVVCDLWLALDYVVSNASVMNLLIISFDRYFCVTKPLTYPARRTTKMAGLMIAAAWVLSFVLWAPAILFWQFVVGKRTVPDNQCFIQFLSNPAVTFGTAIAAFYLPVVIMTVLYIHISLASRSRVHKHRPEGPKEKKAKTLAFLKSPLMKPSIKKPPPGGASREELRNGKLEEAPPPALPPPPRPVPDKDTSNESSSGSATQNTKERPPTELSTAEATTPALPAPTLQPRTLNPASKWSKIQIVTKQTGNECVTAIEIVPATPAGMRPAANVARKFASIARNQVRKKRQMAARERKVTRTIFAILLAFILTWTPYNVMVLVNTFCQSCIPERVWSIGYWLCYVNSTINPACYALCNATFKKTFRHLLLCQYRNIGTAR
Procedure, shortened: as §1

Cc1c2c(n(C)c(=O)c1F)CN(C(=O)CC1CN(c3ccc(C4CC4)c(F)c3)C1)C2 [Compound I-88]
EC50 (hM4 receptors): < 50 nM | EC50 (human M4 receptor): < 50 nM | EC50 (rM4 receptors): < 50 nM

Cc1cc(=O)n(C)c2c1CN(C(=O)CC1CN(c3cccc(F)c3F)C1)C2 [Compound I-14]
EC50 (hM4 receptors): 50 to 200 nM | EC50 (human M4 receptor): 50 to 200 nM | EC50 (rM4 receptors): 200 to 1000 nM

Cc1cc(=O)n(C)c2c1CN(C(=O)CC1CN(c3cc(F)cc(C4CC4)c3)C1)C2 [Compound I-4]
EC50 (hM4 receptors): 50 to 200 nM | EC50 (human M4 receptor): < 50 nM | EC50 (rM4 receptors): 50 to 200 nM

Cc1c2c(n(C)c(=O)c1C)CN(C(=O)CC1CN(c3ccnc(C(F)(F)F)c3)C1)C2 [Compound I-42, 1,3,4-Trimethyl-6-(2-(1-(2-(trifluoromethyl)pyridin-4-yl)azetidin-3-yl)acetyl)-1,5,6,7-tetrahydro-2H-pyrrolo[3,4-b]pyridin-2-one]
EC50 (hM4 receptors): < 50 nM | EC50 (human M4 receptor): < 50 nM | EC50 (rM4 receptors): 50 to 200 nM
